Assays:
FLT3-ITD = molecular target: T1, FLT3-ITD (Homo sapiens, UniProt P36888); experiment: FLT3-ITD biochemical kinase assay (AlphaScreen)
T1 construct: FLT3-ITD; Invitrogen #PV6190
T1 sequence (P36888 1-993): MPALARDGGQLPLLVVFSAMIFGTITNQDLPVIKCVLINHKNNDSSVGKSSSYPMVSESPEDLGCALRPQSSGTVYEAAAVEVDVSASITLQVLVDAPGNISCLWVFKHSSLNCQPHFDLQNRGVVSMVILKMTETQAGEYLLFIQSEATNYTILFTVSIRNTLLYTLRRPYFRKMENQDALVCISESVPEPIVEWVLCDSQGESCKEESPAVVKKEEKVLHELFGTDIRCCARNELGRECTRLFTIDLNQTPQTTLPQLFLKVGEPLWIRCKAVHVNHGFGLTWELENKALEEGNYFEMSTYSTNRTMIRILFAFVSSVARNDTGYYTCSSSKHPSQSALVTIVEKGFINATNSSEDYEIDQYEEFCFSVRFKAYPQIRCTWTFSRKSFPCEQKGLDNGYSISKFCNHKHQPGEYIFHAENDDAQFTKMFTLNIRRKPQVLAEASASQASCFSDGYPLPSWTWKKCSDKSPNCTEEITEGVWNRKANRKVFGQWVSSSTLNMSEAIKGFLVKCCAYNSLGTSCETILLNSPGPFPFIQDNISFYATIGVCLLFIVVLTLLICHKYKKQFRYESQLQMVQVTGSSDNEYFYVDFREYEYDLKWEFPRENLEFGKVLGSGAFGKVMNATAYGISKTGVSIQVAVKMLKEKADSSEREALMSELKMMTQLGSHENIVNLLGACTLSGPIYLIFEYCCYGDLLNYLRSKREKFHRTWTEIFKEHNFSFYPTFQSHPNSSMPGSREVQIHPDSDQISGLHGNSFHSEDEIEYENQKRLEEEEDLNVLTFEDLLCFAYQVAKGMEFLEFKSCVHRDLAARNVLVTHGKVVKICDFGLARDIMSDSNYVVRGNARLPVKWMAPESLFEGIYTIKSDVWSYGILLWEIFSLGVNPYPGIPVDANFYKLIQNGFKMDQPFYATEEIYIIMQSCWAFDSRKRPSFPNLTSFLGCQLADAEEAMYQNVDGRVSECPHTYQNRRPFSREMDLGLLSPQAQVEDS
Method in brief: (§1)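 Read-out is AlphaScreen at 580 nm, where reduced substrate tyrosine phosphorylation lowers bead proximity signal. Reactions contain 30 nM biotinylated poly(Glu4-Tyr) and ATP at 10 μM (D835Y) or 100 μM (ITD); PY20 acceptor beads 10 μg/mL final, 60 min at room temperature before reading.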

FLT3-D835Y = molecular target: T2, FLT3-D835Y (Homo sapiens, UniProt P36888, D835Y); experiment: FLT3-D835Y biochemical kinase assay (AlphaScreen)
T2 construct: purchased Invitrogen PV3967
T2 sequence (P36888 27-993 D835Y): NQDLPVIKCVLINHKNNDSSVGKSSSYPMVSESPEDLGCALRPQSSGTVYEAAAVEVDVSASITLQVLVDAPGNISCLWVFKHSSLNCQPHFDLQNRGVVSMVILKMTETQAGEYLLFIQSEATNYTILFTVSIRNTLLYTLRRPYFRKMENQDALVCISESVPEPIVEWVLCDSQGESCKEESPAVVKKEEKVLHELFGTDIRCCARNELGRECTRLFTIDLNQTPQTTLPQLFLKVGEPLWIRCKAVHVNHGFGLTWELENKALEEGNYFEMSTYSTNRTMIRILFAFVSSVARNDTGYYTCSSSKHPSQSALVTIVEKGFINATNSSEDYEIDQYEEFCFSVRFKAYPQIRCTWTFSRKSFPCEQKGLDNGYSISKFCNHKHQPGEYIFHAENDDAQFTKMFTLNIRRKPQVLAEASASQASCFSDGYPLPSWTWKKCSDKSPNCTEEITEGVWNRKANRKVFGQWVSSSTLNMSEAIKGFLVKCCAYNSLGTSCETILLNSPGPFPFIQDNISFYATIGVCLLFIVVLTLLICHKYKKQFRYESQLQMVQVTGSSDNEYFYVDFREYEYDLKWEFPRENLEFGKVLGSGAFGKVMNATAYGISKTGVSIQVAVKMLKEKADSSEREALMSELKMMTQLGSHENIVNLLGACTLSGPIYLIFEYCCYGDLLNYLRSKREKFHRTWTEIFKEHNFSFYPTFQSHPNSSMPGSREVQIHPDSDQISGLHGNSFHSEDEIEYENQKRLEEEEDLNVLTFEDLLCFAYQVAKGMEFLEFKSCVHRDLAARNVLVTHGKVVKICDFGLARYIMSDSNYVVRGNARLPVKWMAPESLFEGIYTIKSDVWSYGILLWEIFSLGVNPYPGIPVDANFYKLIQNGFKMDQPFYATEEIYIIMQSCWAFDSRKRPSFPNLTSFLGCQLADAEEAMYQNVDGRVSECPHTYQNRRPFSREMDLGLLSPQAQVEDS
Method in brief: as §1

SMILES	IC50 (FLT3-ITD) [µM]	IC50 (FLT3-D835Y) [µM]
COc1cnc2[nH]cc(-c3ccc4ncn(-c5cccc(C#N)c5)c4c3)c2c1 [P-135, 3-[6-(5-methoxy-1H-pyrrolo[2,3-b]pyridin-3-yl)benzimidazol-1-yl]benzonitrile]	0.0001 to 1	0.0001 to 1
O=S(=O)(c1cccc(-c2cnc3[nH]cc(-c4ccc5ncn(C6CCCNC6)c5c4)c3n2)c1)N1CCCC1 (stereo not drawn) [P-237, 7-[3-(3-piperidyl)benzimidazol-5-yl]-2-(3-pyrrolidin-1-ylsulfonylphenyl)-5H-pyrrolo[2,3-b]pyrazine]	0.0001 to 1	0.0001 to 1
N#Cc1cc(-c2cnc3[nH]cc(-c4ccc5ncn(C6CCCNC6)c5c4)c3n2)ccc1F (stereo not drawn) [P-238, 2-fluoro-5-[7-[3-(3-piperidyl)benzimidazol-5-yl]-5H-pyrrolo[2,3-b]pyrazin-2-yl]benzonitrile]	0.0001 to 1	0.0001 to 1
CC(C)(C)n1cnc2ccc(-c3c[nH]c4ncc(-c5cccc(N6CCOCC6)c5)nc34)cc21 [P-226, 4-[3-[7-(3-tert-butylbenzimidazol-5-yl)-5H-pyrrolo[2,3-b]pyrazin-2-yl]phenyl]morpholine]	0.0001 to 1	0.0001 to 1
CC(C)(C)n1cnc2ccc(-c3c[nH]c4ncc(-c5cnn(CC(F)(F)F)c5)nc34)cc21 [P-256, 7-(3-tert-butylbenzimidazol-5-yl)-2-[1-(2,2,2-trifluoroethyl)pyrazol-4-yl]-5H-pyrrolo[2,3-b]pyrazine]	0.0001 to 1	0.0001 to 1
Cn1cnc2ccc(-c3c[nH]c4ncc(-c5cnn(CC(F)(F)F)c5)cc34)cc21 [P-175, 1-methyl-6-[5-[1-(2,2,2-trifluoroethyl)pyrazol-4-yl]-1H-pyrrolo[2,3-b]pyridin-3-yl]benzimidazole]	0.0001 to 1	0.0001 to 1
COc1cnc2[nH]cc(-c3ccc4ncn(-c5cccc(F)c5)c4c3)c2c1 [P-128, 1-(3-fluorophenyl)-6-(5-methoxy-1H-pyrrolo[2,3-b]pyridin-3-yl)benzimidazole]	0.0001 to 1	0.0001 to 1
COc1cnc2[nH]cc(-c3cnc4ncn(Cc5cc(C)on5)c4c3)c2c1 [P-144, 3-[[6-(5-methoxy-1H-pyrrolo[2,3-b]pyridin-3-yl)imidazo[4,5-b]pyridin-1-yl]methyl]-5-methyl-isoxazole]	0.0001 to 1	0.0001 to 1
CC(C)(C)n1cnc2ccc(-c3c[nH]c4ncc(C#Cc5cccc(OC(F)(F)F)c5)nc34)cc21 [P-249, 7-(3-tert-butylbenzimidazol-5-yl)-2-[2-[3-(trifluoromethoxy)phenyl]ethynyl]-5H-pyrrolo[2,3-b]pyrazine]	0.0001 to 1	0.0001 to 1
C#Cc1cnc2[nH]cc(-c3ccc4ncn(C(C)(C)C)c4c3)c2n1 [P-259, 7-(3-tert-butylbenzimidazol-5-yl)-2-ethynyl-5H-pyrrolo[2,3-b]pyrazine]	0.0001 to 1	0.0001 to 1
CC(C)(C)n1cnc2ccc(-c3c[nH]c4ncc(-c5cnn(C(F)F)c5)cc34)cc21 [P-251, 1-tert-butyl-6-[5-[1-(difluoromethyl)pyrazol-4-yl]-1H-pyrrolo[2,3-b]pyridin-3-yl]benzimidazole]	0.0001 to 1	0.0001 to 1
CC(C)(C)n1cnc2ccc(-c3c[nH]c4ncc(-c5cccc(N6CCCCS6(=O)=O)c5)cc34)cc21 [P-221, 2-[3-[3-(3-tert-butylbenzimidazol-5-yl)-1H-pyrrolo[2,3-b]pyridin-5-yl]phenyl]thiazinane 1,1-dioxide]	0.0001 to 1	0.0001 to 1
COc1ncc(-c2cnc3[nH]cc(-c4ccc5ncn(C(C)(C)C)c5c4)c3c2)cn1 [P-265, 1-(tert-butyl)-6-(5-(2-methoxypyrimidin-5-yl)-1H-pyrrolo[2,3-b]pyridin-3-yl)-1H-benzo[d]imidazole]	0.0001 to 1	0.0001 to 1
COc1cc(-c2cnc3[nH]cc(-c4ccc5ncn(C(C)(C)C)c5c4)c3c2)ccn1 [P-106, 1-tert-butyl-6-[5-(2-methoxy-4-pyridyl)-1H-pyrrolo[2,3-b]pyridin-3-yl]benzimidazole]	0.0001 to 1	0.0001 to 1
N#Cc1cccc(C(=O)Nc2cnc3[nH]cc(-c4ccc5ncn(C6CCCNC6)c5c4)c3c2)c1 (stereo not drawn) [P-236, 3-cyano-N-[3-[3-(3-piperidyl)benzimidazol-5-yl]-1H-pyrrolo[2,3-b]pyridin-5-yl]benzamide]	0.0001 to 1	0.0001 to 1

Next, values leading:

IC50 (FLT3-ITD) [µM]	IC50 (FLT3-D835Y) [µM]	SMILES
0.0001 to 1	0.0001 to 1	c1cc(N2CCOCC2)ccc1-c1cnc2[nH]cc(-c3ccc4ncn(C5CCCNC5)c4c3)c2n1 (stereo not drawn) [P-101, 4-[4-[7-[3-(3-piperidyl)benzimidazol-5-yl]-5H-pyrrolo[2,3-b]pyrazin-2-yl]phenyl]morpholine]
0.0001 to 1	0.0001 to 1	COc1cc(-c2cnc3[nH]cc(-c4ccc5ncn([C@@H]6CCCNC6)c5c4)c3n2)ccn1 [P-254, 2-(2-methoxy-4-pyridyl)-7-[3-[(3R)-3-piperidyl]benzimidazol-5-yl]-5H-pyrrolo[2,3-b]pyrazine]
0.0001 to 1	0.0001 to 1	COc1cnc2[nH]cc(-c3ccc4ncn(-c5cccc(Cl)c5)c4c3)c2c1 [P-105, 1-(3-chlorophenyl)-6-(5-methoxy-1H-pyrrolo[2,3-b]pyridin-3-yl)benzimidazole]
0.0001 to 1	0.0001 to 1	FC(F)n1cc(-c2cnc3[nH]cc(-c4ccc5ncn(C6CCCNC6)c5c4)c3n2)cn1 (stereo not drawn) [P-257, 2-[1-(difluoromethyl)pyrazol-4-yl]-7-[3-(3-piperidyl)benzimidazol-5-yl]-5H-pyrrolo[2,3-b]pyrazine]
0.0001 to 1	0.0001 to 1	N#Cc1cccc(NC(=O)c2cnc3[nH]cc(-c4ccc5ncn(C6CCCNC6)c5c4)c3c2)c1 (stereo not drawn) [P-219, N-(3-cyanophenyl)-3-(1-(piperidin-3-yl)-1H-benzo[d]imidazol-6-yl)-1H-pyrrolo[2,3-b]pyridine-5-carboxamide]
0.0001 to 1	0.0001 to 1	CC(C)(C)n1cnc2ccc(-c3c[nH]c4ncc(-c5cccc(N6CCCCS6(=O)=O)c5)nc34)cc21 [P-227, 2-[3-[7-(3-tert-butylbenzimidazol-5-yl)-5H-pyrrolo[2,3-b]pyrazin-2-yl]phenyl]thiazinane 1,1-dioxide]
0.0001 to 1	0.0001 to 1	CC(C)(C)n1cnc2ccc(-c3c[nH]c4ncc(-c5cccc(S(=O)(=O)N6CCCC6)c5)cc34)cc21 [P-220, 1-tert-butyl-6-[5-(3-pyrrolidin-1-ylsulfonylphenyl)-1H-pyrrolo[2,3-b]pyridin-3-yl]benzimidazole]
0.0001 to 1	0.0001 to 1	FC(F)(F)Oc1cccc(C#Cc2cnc3[nH]cc(-c4ccc5ncn(C6CCCNC6)c5c4)c3n2)c1 (stereo not drawn) [P-246, 7-[3-(3-piperidyl)benzimidazol-5-yl]-2-[2-[3-(trifluoromethoxy)phenyl]ethynyl]-5H-pyrrolo[2,3-b]pyrazine]
0.0001 to 1	0.0001 to 1	CC(C)(C)n1cnc2ccc(-c3c[nH]c4ncc(-c5cnn(CC(F)(F)F)c5)cc34)cc21 [P-252, 1-tert-butyl-6-[5-[1-(2,2,2-trifluoroethyl)pyrazol-4-yl]-1H-pyrrolo[2,3-b]pyridin-3-yl]benzimidazole]

Reference: patent US10160755B2 (Plexxikon Inc., priority 2015, dated 2018)
